According to paper PMC10218596 (International Journal of Molecular Sciences, 2023):
Where a SMILES comes first, the peptide text is derived from it. Bridges are numbered along the chain shown (N, C = ends).

How the values were obtained:
h[α6I56V/α3]β4 = target: T1, h[α6I56V/α3]β4 (Homo sapiens, UniProt P30926+P32297+Q15825, I89V); type: cell-based
T1 construct: formed by splicing the N-terminal extracellular domain of the α6 subunit with the α3 subunit; human nAChR α3 subunit (CHRNA3); expressed in transfected cells; host or cells: Xenopus laevis oocytes injected with cRNA (plasmids from the University of Utah)

h[α6K61R/α3]β4 = target: T2, h[α6K61R/α3]β4 (Homo sapiens, UniProt P30926+P32297+Q15825, K94R); experiment: cell-based
T2 construct: formed by splicing the N-terminal extracellular domain of the α6 subunit with the α3 subunit; human nAChR α3 subunit (CHRNA3); expressed in transfected cells; host or cells: Xenopus laevis oocytes injected with cRNA (plasmids from the University of Utah)
T2 sequence (Q15825+P32297 fused with the stated changes): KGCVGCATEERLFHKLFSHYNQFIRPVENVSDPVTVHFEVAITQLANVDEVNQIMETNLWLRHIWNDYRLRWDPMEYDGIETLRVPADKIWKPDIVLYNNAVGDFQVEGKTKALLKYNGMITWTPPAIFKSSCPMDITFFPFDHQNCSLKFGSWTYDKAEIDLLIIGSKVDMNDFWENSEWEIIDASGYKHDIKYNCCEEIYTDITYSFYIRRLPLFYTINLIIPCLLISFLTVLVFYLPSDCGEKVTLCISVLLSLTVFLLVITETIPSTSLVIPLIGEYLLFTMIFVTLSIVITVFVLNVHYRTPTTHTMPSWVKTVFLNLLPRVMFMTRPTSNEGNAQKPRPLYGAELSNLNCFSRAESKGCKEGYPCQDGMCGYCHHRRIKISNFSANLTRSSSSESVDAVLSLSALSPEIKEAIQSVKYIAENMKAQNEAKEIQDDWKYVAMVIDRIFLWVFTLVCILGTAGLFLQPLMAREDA
T2 sequence (P30926 22-498): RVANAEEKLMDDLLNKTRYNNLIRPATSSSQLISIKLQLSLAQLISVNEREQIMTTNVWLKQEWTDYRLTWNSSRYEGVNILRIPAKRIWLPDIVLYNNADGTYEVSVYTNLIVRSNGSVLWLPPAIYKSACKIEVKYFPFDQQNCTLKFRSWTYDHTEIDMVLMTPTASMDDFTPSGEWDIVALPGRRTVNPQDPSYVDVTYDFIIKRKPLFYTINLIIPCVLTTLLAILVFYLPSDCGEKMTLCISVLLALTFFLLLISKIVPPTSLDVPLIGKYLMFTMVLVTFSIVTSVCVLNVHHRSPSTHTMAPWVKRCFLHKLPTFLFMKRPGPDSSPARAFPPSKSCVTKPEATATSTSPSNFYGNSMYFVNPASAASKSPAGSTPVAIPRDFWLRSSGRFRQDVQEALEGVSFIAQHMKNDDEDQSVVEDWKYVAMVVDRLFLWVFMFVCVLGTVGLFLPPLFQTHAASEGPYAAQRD

hα6/α3β4Q33E = target: T3, hα6/α3β4Q33E (Homo sapiens, UniProt P30926+Q15825, Q59E); type: cell-based
T3 construct: splicing the N-terminal extracellular domain of the α6 subunit with the α3 subunit; mutant made by PCR mutagenesis; host or cells: Xenopus laevis oocytes injected with cRNA

hα6/α3β4L107V, V115I = target: T4, hα6/α3β4L107V, V115I (Homo sapiens, UniProt P30926+Q15825, L133V/V141I); experiment: cell-based; type: cell-based
T4 construct: formed by splicing the N-terminal extracellular domain of the α6 subunit with the α3 subunit; fusion partner: remainder of the human α3 subunit (CHRNA3); expressed in transfected cells; host or cells: Xenopus laevis oocytes injected with cRNA
T4 sequence (Q15825 26-239 limits assumed): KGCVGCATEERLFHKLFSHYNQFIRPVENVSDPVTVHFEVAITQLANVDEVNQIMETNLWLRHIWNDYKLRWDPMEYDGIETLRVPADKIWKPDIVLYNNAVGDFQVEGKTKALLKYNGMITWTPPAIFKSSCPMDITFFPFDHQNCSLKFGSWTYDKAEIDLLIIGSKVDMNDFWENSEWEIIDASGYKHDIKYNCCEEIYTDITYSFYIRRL
T4 sequence (P30926 22-498 L133V/V141I): as the sequence (P30926 22-498) above, with L112V, V120I counted along it

h[α6R3Q/α3]β4 = target: T5, h[α6R3Q/α3]β4 (Homo sapiens, UniProt P30926+P32297+Q15825, R36Q); type: cell-based
T5 construct: formed by splicing the N-terminal extracellular domain of the α6 subunit with the α3 subunit; human nAChR α3 subunit (CHRNA3); expressed in transfected cells; host or cells: Xenopus laevis oocytes injected with cRNA (plasmids from the University of Utah)

human α6/α3β2β3 nAChR = conditions: cited from earlier work
hα6/α3β4I84V = target: T6, hα6/α3β4I84V (Homo sapiens, UniProt P30926+Q15825, I110V); type: cell-based
T6 construct: splicing the N-terminal extracellular domain of the α6 subunit with the α3 subunit; mutant made by PCR mutagenesis; host or cells: Xenopus laevis oocytes injected with cRNA

h[α6K81N/α3]β4 [1] = target: T7, h[α6K81N/α3]β4 (Homo sapiens, UniProt P30926+P32297+Q15825, K114N); type: cell-based
T7 construct: formed by splicing the N-terminal extracellular domain of the α6 subunit with the α3 subunit; fusion partner: remainder of the human α3 subunit (CHRNA3); expressed in transfected cells; host or cells: Xenopus laevis oocytes injected with cRNA

h[α6K81N/α3]β4 [2] = type: cell-based, human
hα6/α3β4V115I = target: T8, hα6/α3β4V115I (Homo sapiens, UniProt P30926+Q15825, V141I); experiment: cell-based
T8 construct: splicing the N-terminal extracellular domain of the α6 subunit with the α3 subunit; mutant made by PCR mutagenesis; host or cells: Xenopus laevis oocytes injected with cRNA
T8 sequence (Q15825 26-239 limits assumed): as the sequence (Q15825 26-239 limits assumed) above
T8 sequence (P30926 22-498 V141I): as the sequence (P30926 22-498) above, with V120I counted along it

h[α6K7T/α3]β4 = target: T9, h[α6K7T/α3]β4 (Homo sapiens, UniProt P30926+P32297+Q15825, K40T); type: cell-based
T9 construct: formed by splicing the N-terminal extracellular domain of the α6 subunit with the α3 subunit; human nAChR α3 subunit (CHRNA3); expressed in transfected cells; host or cells: Xenopus laevis oocytes injected with cRNA (plasmids from the University of Utah)

h[α6V32L/α3]β4 [3] = experiment: cell-based; set-up: species or system human
h[α6V32L/α3]β4 [4] = target: T10, h[α6V32L/α3]β4 (Homo sapiens, UniProt P30926+P32297+Q15825, V65L); experiment: cell-based
T10 construct: formed by splicing the N-terminal extracellular domain of the α6 subunit with the α3 subunit; human nAChR α3 subunit (CHRNA3); expressed in transfected cells; host or cells: Xenopus laevis oocytes injected with cRNA (plasmids from the University of Utah)
T10 sequence (Q15825+P32297 fused with the stated changes): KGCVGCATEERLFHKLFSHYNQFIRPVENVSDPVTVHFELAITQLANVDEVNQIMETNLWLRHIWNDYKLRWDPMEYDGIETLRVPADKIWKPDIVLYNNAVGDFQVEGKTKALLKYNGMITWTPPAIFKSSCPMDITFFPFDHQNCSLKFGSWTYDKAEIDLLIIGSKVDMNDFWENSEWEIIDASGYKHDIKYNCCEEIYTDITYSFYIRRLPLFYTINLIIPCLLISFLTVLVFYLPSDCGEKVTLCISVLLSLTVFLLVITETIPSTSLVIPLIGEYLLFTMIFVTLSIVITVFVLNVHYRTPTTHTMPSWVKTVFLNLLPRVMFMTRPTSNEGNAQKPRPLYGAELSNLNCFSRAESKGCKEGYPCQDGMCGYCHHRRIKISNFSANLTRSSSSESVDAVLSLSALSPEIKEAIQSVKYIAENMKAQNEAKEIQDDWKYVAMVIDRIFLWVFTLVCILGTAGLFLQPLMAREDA
T10 sequence (P30926 22-498): as the sequence (P30926 22-498) above

rat α6/α3β2β3 nAChR = conditions: cited from earlier work
hα6/α3β4 = target: T11, hα6/α3β4 (Homo sapiens, UniProt P30926+P32297+Q15825); experiment: cell-based; type: cell-based
T11 construct: splicing the N-terminal extracellular domain of the α6 subunit with the α3 subunit; host or cells: Xenopus laevis oocytes injected with cRNA (1:1)
T11 sequence (Q15825+P32297 fused with the stated changes): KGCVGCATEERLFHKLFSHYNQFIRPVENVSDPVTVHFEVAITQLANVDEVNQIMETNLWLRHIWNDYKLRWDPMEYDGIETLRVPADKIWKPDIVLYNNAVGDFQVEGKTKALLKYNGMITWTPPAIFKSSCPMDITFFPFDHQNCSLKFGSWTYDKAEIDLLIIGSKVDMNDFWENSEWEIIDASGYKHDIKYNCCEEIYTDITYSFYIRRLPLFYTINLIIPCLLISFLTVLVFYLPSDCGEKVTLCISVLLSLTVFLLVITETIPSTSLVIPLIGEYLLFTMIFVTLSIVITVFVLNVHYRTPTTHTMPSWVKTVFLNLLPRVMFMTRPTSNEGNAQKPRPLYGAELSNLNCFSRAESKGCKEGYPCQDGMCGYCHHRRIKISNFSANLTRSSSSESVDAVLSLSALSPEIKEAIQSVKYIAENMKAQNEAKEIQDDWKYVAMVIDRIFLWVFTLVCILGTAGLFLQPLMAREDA
T11 sequence (P30926 22-498): as the sequence (P30926 22-498) above

h[α6I176V/α3]β4 = target: T12, h[α6I176V/α3]β4 (Homo sapiens, UniProt P30926+P32297+Q15825, I209V); type: cell-based
T12 construct: formed by splicing the N-terminal extracellular domain of the α6 subunit with the α3 subunit; fusion partner: remainder of the human α3 subunit (CHRNA3); expressed in transfected cells; host or cells: Xenopus laevis oocytes injected with cRNA

hα6/α3β4L107V = target: T13, hα6/α3β4L107V (Homo sapiens, UniProt P30926+Q15825, L133V); experiment: cell-based
T13 construct: splicing the N-terminal extracellular domain of the α6 subunit with the α3 subunit; mutant made by PCR mutagenesis; host or cells: Xenopus laevis oocytes injected with cRNA
T13 sequence (Q15825 26-239 limits assumed): as the sequence (Q15825 26-239 limits assumed) above
T13 sequence (P30926 22-498 L133V): as the sequence (P30926 22-498) above, with L112V counted along it

h[α6M112V/α3]β4 = target: T14, h[α6M112V/α3]β4 (Homo sapiens, UniProt P30926+P32297+Q15825, M145V); type: cell-based
T14 construct: formed by splicing the N-terminal extracellular domain of the α6 subunit with the α3 subunit; fusion partner: remainder of the human α3 subunit (CHRNA3); expressed in transfected cells; host or cells: Xenopus laevis oocytes injected with cRNA

hα6/α3β4A37S = target: T15, hα6/α3β4A37S (Homo sapiens, UniProt P30926+Q15825, A63S); type: cell-based
T15 construct: splicing the N-terminal extracellular domain of the α6 subunit with the α3 subunit; mutant made by PCR mutagenesis; host or cells: Xenopus laevis oocytes injected with cRNA

[5] = read-out: inhibition of the current response to 100 μM ACh

CC(C)C[C@@H]1NC(=O)[C@H](CC(=O)O)NC(=O)[C@@H]2CCCN2C(=O)[C@H](Cc2c[nH]cn2)NC(=O)[C@H](CCCCN)NC(=O)[C@H](CC(N)=O)NC(=O)[C@H](CCCNC(=N)N)NC(=O)[C@@H]2CSSC[C@H](NC(=O)CN)C(=O)N[C@@H](CSSC[C@@H](C(N)=O)NC1=O)C(=O)N[C@@H](CO)C(=O)N[C@@H](CC(=O)O)C(=O)N1CCC[C@H]1C(=O)N1CCC[C@H]1C(=O)N2 [TxIB] (H-GCCSDPPCRNKHPDLC-NH2; disulfide 2-8, 3-16)
Hill Slope (h[α6I56V/α3]β4): 1.0 (0.9–1.2) | Ratio (change in TxIB IC50 relative to hα6/α3β4) (h[α6I56V/α3]β4): 0.9 | Hill Slope (h[α6K61R/α3]β4): 0.8 (0.7–0.9) | Ratio (change in TxIB IC50 relative to hα6/α3β4) (h[α6K61R/α3]β4): 3.4 | activity at 10 µM (h[α6K61R/α3]β4; [5]): 22.1 ± 4.7% | Hill Slope (hα6/α3β4Q33E): 0.9 (0.7–1.0) | Ratio (change in TxIB IC50 relative to hα6/α3β4) (hα6/α3β4Q33E): 0.8 | Hill Slope (hα6/α3β4L107V, V115I): 0.8 (0.8–0.9) | Ratio (change in TxIB IC50 relative to hα6/α3β4) (hα6/α3β4L107V, V115I): 4.9 | time to full restoration of currents blocked by TxIB (hα6/α3β4L107V, V115I): ≤ 1 min | activity at 10 µM (hα6/α3β4L107V, V115I; [5]): 25.1 ± 11.2% | Hill Slope (h[α6R3Q/α3]β4): 0.9 (0.8–1.1) | Ratio (change in TxIB IC50 relative to hα6/α3β4) (h[α6R3Q/α3]β4): 0.9 | blocking effect (human α6/α3β2β3 nAChR): significant blocking effect | Hill Slope (hα6/α3β4I84V): 0.8 (0.8–0.9) | Ratio (change in TxIB IC50 relative to hα6/α3β4) (hα6/α3β4I84V): 1.4 | Hill Slope (h[α6K81N/α3]β4 [1]): 0.8 (0.7–0.9) | Ratio (change in TxIB IC50 relative to hα6/α3β4) (h[α6K81N/α3]β4 [2]): 1.2 | Hill Slope (hα6/α3β4V115I): 0.8 (0.7–0.9) | Ratio (change in TxIB IC50 relative to hα6/α3β4) (hα6/α3β4V115I): 2.8 | activity at 10 µM (hα6/α3β4V115I; [5]): 20.1 ± 3.86% | Hill Slope (h[α6K7T/α3]β4): 0.8 (0.6–0.9) | Ratio (change in TxIB IC50 relative to hα6/α3β4) (h[α6K7T/α3]β4): 1.4 | Ratio (change in TxIB IC50 relative to hα6/α3β4) (h[α6V32L/α3]β4 [3]): 4.2 | Hill Slope (h[α6V32L/α3]β4 [4]): 0.7 (0.7–0.8) | activity at 10 µM (h[α6V32L/α3]β4 [4]; [5]): 25.3 ± 5.23% | IC50 (rat α6/α3β2β3 nAChR): 28 nM | Hill Slope (hα6/α3β4): 0.8 (0.8–0.9) | Ratio (change in TxIB IC50 relative to hα6/α3β4) (hα6/α3β4): 1 | blocking effect (hα6/α3β4): completely blocked | variation of activity between human and murine nAChRs (hα6/α3β4): more than 30 fold | activity at 10 µM (hα6/α3β4; [5]): 11 ± 5.9% | Hill Slope (h[α6I176V/α3]β4): 0.8 (0.7–0.9) | Ratio (change in TxIB IC50 relative to hα6/α3β4) (h[α6I176V/α3]β4): 0.8 | Hill Slope (hα6/α3β4L107V): 0.8 (0.7–0.9) | Ratio (change in TxIB IC50 relative to hα6/α3β4) (hα6/α3β4L107V): 3.3 | activity at 10 µM (hα6/α3β4L107V; [5]): 21.7 ± 4.29% | Hill Slope (h[α6M112V/α3]β4): 0.8 (0.7–0.9) | Ratio (change in TxIB IC50 relative to hα6/α3β4) (h[α6M112V/α3]β4): 0.6 | Hill Slope (hα6/α3β4A37S): 0.9 (0.8–1.0) | Ratio (change in TxIB IC50 relative to hα6/α3β4) (hα6/α3β4A37S): 1.1
